Assay results taken from US20150050663A1, “Optimal Gonadotropin Dosage” (Oslo Universitetssykehus HF, priority 2012, published 2015).

Test system: peripheral blood monocytes
Assay: uptake of fluorochrome-conjugated gonadotropins by blood-derived leukocytes (FACS)
Assay type: cell-based, human
Details: FIG. 1B
Method: Blood-derived monocytes are enriched by density gradient centrifugation. […] Cells are labelled with fluorochrome-conjugated monocyte marker (e.g. anti-CD14-PerCP antibody, as described above) and analyzed with multi-colour flow cytometry (FACS).
Unspecific binding (background) is estimated as MFI for cells incubated on ice
Cells were analyzed with flow cytometry (FACS) with simultaneous detection of multiple cell lineage markers.

Q: With cytochalasin as the substance, how does the “effect on gonadotropin binding to monocytes” value read?
A: The value was “inhibited”.
